Results reported in US20260224549A1, “COMPOUNDS, COMPOSITIONS, AND METHODS FOR TREATING, AMELIORATING, AND/OR PREVENTING PAIN” (priority 2023, published 2026).
“And” between values parts separate entries of the source, which are not always exact repeats. Equal values may be shown once.

What was measured:
in vivo = conditions: dog, in vivo
Text: (§1) The chosen dose can be higher, as long as within the pharmacological range.

dog = experiment: in vivo
Text: as §1

clinical = conditions: for CL/F (apparent clearance), Mean / Tlast (time of last measurable concentration), Median / Tlast, Max / Tlast, Min / Tmax, Min / Tmax, Max / AUC(0-t): single oral dose, N = 6; for CL/F (apparent clearance), Mean / Tlast (time of last measurable concentration), Median / Tlast, Max / Tlast, Min / Tmax, Min / Tmax, Max / Tmax / half-life / Vd/F / AUC(0-inf) / Cmax / AUC(0-t): plasma; for Tmax / half-life / Vd/F / AUC(0-inf) / Cmax / AUC(0-t): human; for AUC(0-t): Mean
Text: The study comprised a single ascending dose (SAD), sequential cohort study, incorporating a food effect (FE) evaluation. Up to 40 subjects were to be studied in 5 cohorts (Cohorts A1 to A5), each cohort consisting of 8 subjects.
Subjects in Cohort A3 participated in 2 treatment periods (once in Fed state, once in Fasted state) separated by a minimum of 6 days. All subjects were to return for a poststudy on Day 5 (+2 days) after their final dose for a final safety assessment.
All doses for Cohorts A1, A2, A4, and A5 were administered in the fasted state in the moming of Day 1.
The actual blood sampling dates and times relative to dosing time were listed by subject and nominal sampling time, with time deviation calculated, for all subjects with available plasma concentration data.
For PK concentration data, the number of non-missing values, number of below limit of quantification (BLQ) values, arithmetic mean, standard deviation, median, minimum, maximum, coefficient of variation (CV %), geometric mean and geometric coefficient of variation (geo CV %) values was presented.
For PK parameter data, the number of non-missing values, arithmetic mean, standard deviation, median, minimum, and maximum values were presented.

human μ-opioid receptor = conditions: G-protein signaling over β-arrestin signaling
Text: Applying ^19F NMR, one can measure the quantity of G-protein signaling conformation, as well as that of β-arrestin signaling conformation, of the μ-opioid receptor as induced by an agonist.

μ-opioid receptor = μ-opioid receptor (Rattus norvegicus, UniProt P33535)
Chain of μ-opioid receptor (P33535 whole entry): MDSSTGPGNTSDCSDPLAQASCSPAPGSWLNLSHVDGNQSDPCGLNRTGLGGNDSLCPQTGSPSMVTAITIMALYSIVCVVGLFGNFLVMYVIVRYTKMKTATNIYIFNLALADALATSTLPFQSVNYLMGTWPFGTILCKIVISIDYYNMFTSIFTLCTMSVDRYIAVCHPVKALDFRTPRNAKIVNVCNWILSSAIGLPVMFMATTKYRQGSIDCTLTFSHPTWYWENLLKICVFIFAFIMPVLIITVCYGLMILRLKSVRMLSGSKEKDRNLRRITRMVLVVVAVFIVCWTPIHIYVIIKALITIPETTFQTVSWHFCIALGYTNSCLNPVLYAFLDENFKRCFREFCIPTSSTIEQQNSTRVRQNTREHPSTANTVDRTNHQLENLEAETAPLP

rats = conditions: exposures far above the ED50 in rats

For `CN(C)C[C@H]1CN(CCc2ccsc2)CC[C@]1(O)c1cccc(C(N)=O)c1` [Compound I, 3-(3S, 4R)-3-((dimethylamino)methyl)-4-hydroxy-1-(2-(thiophen-3-yl)ethyl)piperidin-4-yl-benzamide], the NOAEL (in vivo) was 60 mg/kg/day and 33.3 mg/kg, the “NOAEL HED for 50 kg subject” value (dog) was 1665 mg and the “CL/F (apparent clearance), Mean” value (clinical; 20 mg DS (Fasted)) was 1130 L/h. For the same compound, the “Tlast (time of last measurable concentration), Median” value (from here on “Tlast … Median”) (clinical; 20 mg DS (Fasted)) was 4.00 h, the “Tlast, Max” value (clinical; 20 mg DS (Fasted)) was 4.03 h and the “Tlast, Min” value (clinical; 20 mg DS (Fasted)) was 3.50 h. For the same compound, the “Tmax, Min” value (clinical; 20 mg DS (Fasted)) was 0.500 h, the CL/F (clinical; 20 mg fasted) was 1130 L/h and the “mean concentrations measurable through” value (clinical; 20 mg fasted) was 3.5 h. The “CL/F (apparent clearance), Mean” value (clinical; 60 mg DS (Fasted)) was 937 L/h, the “Tlast … Median” value (clinical; 60 mg DS (Fasted)) was 12.0 h and the “Tlast, Max” value (clinical; 60 mg DS (Fasted)) was 24.0 h. For the same compound, the “Tlast, Min” value (clinical; 60 mg DS (Fasted)) was 6.00 h, the “Tmax, Max” value (clinical; 60 mg DS (Fasted)) was 3.02 h and the CL/F (clinical; 60 mg fasted) was 937 L/h. The “mean concentrations measurable through” value (clinical; 60 mg fasted) was 8 h, the “CL/F (apparent clearance), Mean” value (clinical; 120 mg DS (Fasted)) was 541 L/h and the “Tlast … Median” value (clinical; 120 mg DS (Fasted)) was 36.0 h. For the same compound, the “Tlast, Max” value (clinical; 120 mg DS (Fasted)) was 48.0 h, the “Tlast, Min” value (clinical; 120 mg DS (Fasted)) was 16.0 h and the “Tmax, Max” value (clinical; 120 mg DS (Fasted)) was 3.00 h. The “mean concentrations measurable through” value (clinical; 120 mg fasted) was 36 h, the “CL/F (apparent clearance), Mean” value (clinical; 200 mg DS (Fasted)) was 452 L/h and the “Tlast … Median” value (clinical; 200 mg DS (Fasted)) was 48.0 h. For the same compound, the “Tlast, Max” value (clinical; 200 mg DS (Fasted)) was 48.1 h, the “Tlast, Min” value (clinical; 200 mg DS (Fasted)) was 36.0 h and the “Tmax, Max” value (clinical; 200 mg DS (Fasted)) was 2.02 h. The “Tmax, Min” value (clinical; 200 mg DS (Fasted)) was 1.00 h, the “mean concentrations measurable through” value (clinical; 200 mg fasted) was 36 h and the “CL/F (apparent clearance), Mean” value (clinical; 400 mg DS (Fasted)) was 500 L/h. For the same compound, the “Tlast … Median” value (clinical; 400 mg DS (Fasted)) was 48.0 h, the “Tlast, Max” value (clinical; 400 mg DS (Fasted)) was 48.0 h and the “Tlast, Min” value (clinical; 400 mg DS (Fasted)) was 48.0 h. For the same compound, the “Tmax, Max” value (clinical; 400 mg DS (Fasted)) was 2.02 h, the “Tmax, Min” value (clinical; 400 mg DS (Fasted)) was 1.00 h and the “mean concentrations measurable through” value (clinical; 400 mg fasted) was 48 h. The Tmax (clinical; oral) was 1.5 to 2.5 h, the half-life (clinical; oral) was 29.4 to 31.4 h and the Vd/F (clinical; oral, 20 mg) was 1380 L. It also gave a half-life (clinical; oral, 20 mg) of 1.05 h, a Vd/F (clinical; oral, 60 mg) of 6790 L and a half-life (clinical; oral, 60 mg) of 7.89 h. For the same compound, the Vd/F (clinical; oral, 120 mg) was 12300 L, the Vd/F (clinical; oral, 200 mg) was 18100 L and the Vd/F (clinical; oral, 400 mg) was 20400 L. It also gave an AUC(0-inf) (clinical; po, 20 mg) of 0.0184 µg·h/mL, a Cmax (clinical; po, 20 mg) of 0.00969 µg/mL and a Tmax (clinical; po, 20 mg) of 2.5 h. It also gave a Vd/F (clinical; po, 20 mg) of 1380 L, a half-life (clinical; po, 20 mg) of 1.05 h and an AUC(0-t) (clinical; po, 20 mg, AUC0-last (zero to 24 hours postdose), 20 mg DS (Fasted)) of 0.0165 µg·h/mL. It also gave an AUC(0-t) (clinical; po, 20 mg, AUC0-t (zero to the last quantifiable concentration), 20 mg DS (Fasted)) of 0.0139 µg·h/mL, an AUC(0-inf) (clinical; po, 60 mg) of 0.0798 µg·h/mL and a Cmax (clinical; po, 60 mg) of 0.0517 µg/mL. The Tmax (clinical; po, 60 mg) was 2.25 h, the Vd/F (clinical; po, 60 mg) was 6790 L and the half-life (clinical; po, 60 mg) was 7.89 h. For the same compound, the AUC(0-t) (clinical; po, 60 mg, AUC0-last (zero to 24 hours postdose), 60 mg DS (Fasted)) was 0.0716 µg·h/mL, the AUC(0-t) (clinical; po, 60 mg, AUC0-t (zero to the last quantifiable concentration), 60 mg DS (Fasted)) was 0.0671 µg·h/mL and the AUC(0-inf) (clinical; po, 120 mg) was 0.245 µg·h/mL. For the same compound, the Cmax (clinical; po, 120 mg) was 0.0985 µg/mL, the Tmax (clinical; po, 120 mg) was 2.28 h and the Vd/F (clinical; po, 120 mg) was 12300 L. For the same compound, the half-life (clinical; po, 120 mg) was 31.4 h, the AUC(0-t) (clinical; po, 120 mg, AUC0-last (zero to 24 hours postdose), 120 mg DS (Fasted)) was 0.211 µg·h/mL and the AUC(0-t) (clinical; po, 120 mg, AUC0-t (zero to the last quantifiable concentration), 120 mg DS (Fasted)) was 0.231 µg·h/mL. For the same compound, the AUC(0-inf) (clinical; po, 200 mg) was 0.446 µg·h/mL, the Cmax (clinical; po, 200 mg) was 0.22 µg/mL and the Tmax (clinical; po, 200 mg) was 2 h. The Vd/F (clinical; po, 200 mg) was 18100 L, the half-life (clinical; po, 200 mg) was 29.4 h and the AUC(0-t) (clinical; po, 200 mg, AUC0-last (zero to 24 hours postdose), 200 mg DS (Fasted)) was 0.346 µg·h/mL. The AUC(0-t) (clinical; po, 200 mg, AUC0-t (zero to the last quantifiable concentration), 200 mg DS (Fasted)) was 0.381 µg·h/mL, the AUC(0-inf) (clinical; po, 400 mg) was 0.832 µg·h/mL and the Cmax (clinical; po, 400 mg) was 0.318 µg/mL. For the same compound, the Tmax (clinical; po, 400 mg) was 1.5 h, the Vd/F (clinical; po, 400 mg) was 20400 L and the half-life (clinical; po, 400 mg) was 32.1 h. The AUC(0-t) (clinical; po, 400 mg, AUC0-last (zero to 24 hours postdose), 400 mg DS (Fasted)) was 0.698 µg·h/mL, the AUC(0-t) (clinical; po, 400 mg, AUC0-t (zero to the last quantifiable concentration), 400 mg DS (Fasted)) was 0.794 µg·h/mL and the signaling pathway selectivity (human μ-opioid receptor) was “extremely cell-signaling-pathway-selective μ-opioid agonist”. For the same compound, the “mediation of antinociceptive effect” value (μ-opioid receptor; in vivo) was “mediated exclusively by μ-opioid receptor”, the “pain relief in preclinical models” value (μ-opioid receptor; preclinical models) was “comparable to Schedule 2 opiates” and the “respiratory depression or other opiate-based adverse effects” value (rats) was “no respiratory depression or other opiate-based adverse effects”.
